Data as given in publication PMC10514447 (The Journal of Biological Chemistry, 2023).

Test system: GCGR ECD
Test: TIRF-based smFRET of GCGR ECD dynamics in the presence of ligands
Parameters: species or system human
Conditions: for smFRET histogram peak location (FRET efficiency), green peak / smFRET histogram peak location (FRET efficiency), red peak: 64 molecules (glucagon), 86 (MK0893)
Description: We used smFRET to examine the conformational behavior of the GCGR ECD. smFRET is a well-established technique for studying the conformational dynamics of biomolecules at the single molecule level ([38], [39]), as it is sensitive to changes in distances in vitro and in cells ([40]). First, we specifically expressed and purified a GCGR with two surface-exposed cysteines at positions 49 (Cys49) of the ECD and 287 (Cys287) of the extracellular side of helix IV (Fig. S4B). These two cysteines were site-specifically labeled with a FRET donor (Alexa Fluor 555) and a FRET acceptor (Alexa Fluor 647). The efficiency of energy transfer will report the proximity between the donor and acceptor fluorophores and any changes in that distance ([41], [42]). To view receptors under smFRET, the doubly labeled GCGR was surface-immobilized on a PEG-passivated quartz microscope slide using a biotin–streptavidin interaction, as shown in Figure 1A. A biotinylated anti-FLAG antibody was used to capture the FLAG-tagged GCGR (Fig. 1A). A 532 nm laser was used to excite the donor fluorophore by creating the evanescent field from the total internal reflection of the laser beam (Fig. 1A). The emission signals from the donor and acceptor fluorophores were detected by an electron-multiplied back-illuminated CCD camera. […] A control experiment was performed to test the specific immobilization of GCGR–micelle using a biotinylated antibody to a PEG-passivated quartz surface (Fig. S5A). […] Single-molecule fluorescence time trajectories were assessed and analyzed using custom software written in MATLAB.
Single-molecule fluorescence data were recorded using a customized prism-based total internal reflection fluorescence imaging system based on an inverted IX73 microscope (Olympus) equipped with a X60 objective (Olympus, 1.49 numerical aperture, water) as described in earlier publications ([47], [48], [49]). Quartz microscope slides (G. Finkenbeiner) and coverslips (Fisher Scientific #1254588) were cleaned and passivated with polyethylene glycol (m-PEG-SVA) and 3% (w/w) biotin-PEG-SVA (Laysan Bio) to prevent nonspecific protein adsorption, as previously described ([30]). A sample chamber was prepared using double-sided tape (Scotch) on PEGylated slides and coverslips ([48]). The sample chamber was first coated with 0.02 mg/ml NeutrAvidin (ThermoFisher Scientific #PI31000) and washed with T50 buffer (10 mM Tris, pH 7.4, 50 mM NaCl). A […] biotin-conjugated anti-FLAG antibody (GenScript #A01429) was injected and incubated for 20 min, followed by washing with the imaging buffer (25 mM HEPES pH 7.5, 150 mM NaCl, 2 mM Trolox, 0.05% DDM, 0.01% CHS) to remove unbound biotinylated anti-FLAG antibody. The GCGR sample was diluted in an imaging buffer, introduced into the sample chamber, and incubated for 30 min. The sample chamber was washed extensively with an imaging buffer to remove any unbound receptors. Finally, an oxygen scavenging system, 5 mM protocatechuic acid (Sigma #37580), and 3 U/ml protocatechuate-3,4-dioxygenase (Oriental Yeast) ([50]) in the imaging buffer were applied before total internal reflection fluorescence illumination. The sample was excited at […] (CrystaLaser), and emission intensities from both donor and acceptor fluorophores were collected on an EMCCD camera (Andor Technology) with 100 ms integration time using a custom single-molecule data acquisition program ([48]). All single-molecule measurements were performed at room temperature. Single-molecule time trajectories were extracted using scripts written in IDL software (Harris Geospatial Solutions, Inc).

[1] = GCGR labeled Alexa Fluor 555/647 at Cys49 and Cys287, DDM-CHS micelle, room temperature, Gaussian fit
[2] = Gaussian fit of smFRET histogram, ligand-bound GCGR
[3] = calculated from peak centre with Förster equation, R0 51 Å, glucagon-bound GCGR

Compound | smFRET histogram peak location (FRET efficiency), blue peak (GCGR labeled Alexa Fluor 555/647 at Cys49 and Cys287, DDM-CHS micelle, room temperature, Gaussian fit, 64 molecules) | smFRET histogram peak location (FRET efficiency), green peak [1] | smFRET histogram peak location (FRET efficiency), red peak [1] | smFRET histogram peak width, blue peak [2] | smFRET histogram peak width, green peak [2] | smFRET histogram peak width, red peak [2] | smFRET histogram relative peak area, blue peak [2] [%] | smFRET histogram relative peak area, green peak [2] [%] | smFRET histogram relative peak area, red peak [2] [%] | calculated distance, 0.53 FRET state [3] [Å] | calculated distance, 0.67 FRET state [3] [Å] | distance between the two fluorophores, 0.86 FRET state [3] [Å] | effect on the FRET distribution relative to apo-GCGR (saturating concentration of antagonist, histogram from 86 molecules)
glucagon | 0.53 | 0.86 | 0.67 | 0.24 | 0.14 | 0.11 | 24 | 59 | 17 | 50.0 | 45.3 | 37.7 | 
COc1ccc2cc(-c3cc(-c4cc(Cl)cc(Cl)c4)nn3[C@@H](C)c3ccc(C(=O)NCCC(=O)O)cc3)ccc2c1 [MK0893] |  | 0.91 | 0.75 |  | 0.09 | 0.19 |  | 47 | 53 |  |  |  | no effect on the FRET distribution relative to the apo-GCGR
